ChEMBL document CHEMBL3091353, “Trisubstituted and tetrasubstituted pyrazolines as a novel class of cell-growth inhibitors in tumor cells with wild type p53” (Bioorg Med Chem, 2013)
Calls of active or inactive are those of the source. The rule behind the calls is not given here.

Assays:
[1] = biological target: E3 ubiquitin-protein ligase Mdm2 (Homo sapiens) (UniProt Q00987); experiment: Displacement of carboxyfluorescein-labeled LTFEHYWAQLTS-FAM from MDM2 (unknown origin) (2 to 125) at 0.005 to 1 mM by fluorescence anisotropic analysis
E3 ubiquitin-protein ligase Mdm2 (Homo sapiens), sequence (Q00987 whole entry, looked up): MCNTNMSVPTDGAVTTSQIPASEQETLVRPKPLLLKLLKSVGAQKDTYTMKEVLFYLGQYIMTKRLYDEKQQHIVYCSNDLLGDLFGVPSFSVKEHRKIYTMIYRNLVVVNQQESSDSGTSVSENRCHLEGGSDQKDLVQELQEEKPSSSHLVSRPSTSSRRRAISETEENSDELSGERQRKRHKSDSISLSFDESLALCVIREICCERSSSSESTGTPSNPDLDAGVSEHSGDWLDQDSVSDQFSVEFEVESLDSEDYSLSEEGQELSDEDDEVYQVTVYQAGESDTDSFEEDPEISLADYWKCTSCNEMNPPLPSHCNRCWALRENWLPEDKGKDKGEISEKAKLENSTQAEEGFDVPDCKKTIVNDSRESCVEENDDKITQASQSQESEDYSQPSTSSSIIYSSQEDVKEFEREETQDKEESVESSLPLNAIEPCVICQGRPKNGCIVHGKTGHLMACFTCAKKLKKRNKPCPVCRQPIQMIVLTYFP

[2] = Cytotoxicity against human H1299 cells after 72 hrs by CellTiterGlo luciferase-based assay; assay type: functional, cell-based; settings: NCI-H1299, 72 h
HCT-116 [3] = experiment: Cytotoxicity against human HCT116 cells after 72 hrs by CellTiterGlo luciferase-based assay; assay type: functional, cell-based; settings: HCT-116, 72 h
[4] = biological target: E3 ubiquitin-protein ligase Mdm2 (Homo sapiens) (UniProt Q00987); experiment: Displacement of carboxyfluorescein-labeled LTFEHYWAQLTS-FAM from human MDM2 (16 to 116) expressed in Escherichia coli C41 at 0.005 to 1 mM by fluorescence anisotropic analysis
[5] = biological target: Cellular tumor antigen p53 (Homo sapiens) (UniProt P04637); experiment: Induction of p53 translocation in human HCT116 cells assessed as protein nuclear to cytosolic ratio at 30 uM after 20 hrs by immunofluorescence analysis; assay type: cell-based; settings: HCT-116
Cellular tumor antigen p53 (Homo sapiens), sequence (P04637 whole entry, looked up): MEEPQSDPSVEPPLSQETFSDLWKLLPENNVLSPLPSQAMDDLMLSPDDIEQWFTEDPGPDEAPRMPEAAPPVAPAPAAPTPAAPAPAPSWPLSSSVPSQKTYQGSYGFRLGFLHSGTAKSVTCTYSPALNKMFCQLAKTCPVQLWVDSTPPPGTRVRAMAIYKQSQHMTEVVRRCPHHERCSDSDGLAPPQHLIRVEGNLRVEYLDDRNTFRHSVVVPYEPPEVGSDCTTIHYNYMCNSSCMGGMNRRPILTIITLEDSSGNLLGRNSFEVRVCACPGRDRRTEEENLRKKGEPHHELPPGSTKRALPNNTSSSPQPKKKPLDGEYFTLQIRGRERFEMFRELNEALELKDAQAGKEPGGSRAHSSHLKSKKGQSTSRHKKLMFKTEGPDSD

[6] = Ratio of IC50 for human H1299 cells to IC50 for human HCT116 cells; settings: H1299 cells and HCT116 cells
NCI-H1299 = experiment: Cytotoxicity against human H1299 cells at 20 uM after 72 hrs by CellTiterGlo luciferase-based assay; assay type: functional, cell-based
HCT-116 [7] = experiment: Cytotoxicity against human HCT116 cells at 20 uM after 72 hrs by CellTiterGlo luciferase-based assay; assay type: functional, cell-based

Compound	inhibition [1]	inhibition [4]	Activity [5]	IC50 [2] [µM]	IC50 (HCT-116 [3]) [µM]	selectivity ratio [6]	inhibition (NCI-H1299)	inhibition (HCT-116 [7])
CC(C)(C)C1=NN(c2ccc(Cl)cc2)C(c2ccc(Cl)c(Cl)c2)C1 (stereo not drawn)	Active	Active		14.8	5.3			
COc1cccc(C2=NN(c3ccccc3Cl)C(c3ccccc3Cl)C2)c1 (stereo not drawn)	inactive	inactive	inactive	13.6	2.5			
CC(C)(C)C1=NN(c2ccc(Br)cc2)C(c2ccc(Cl)cc2)C1 (stereo not drawn)	Active	Active		19.4	4.3			
COc1ccc(C2=N[C@@H](c3ccc(Cl)cc3)[C@@H](c3ccc(Cl)cc3)N2C(=O)N2CCNC(=O)C2)c(OC(C)C)c1 [NUTLIN-3]				14.7	1.6	9		
COc1ccc(C2=NN(c3ccccc3Cl)C(c3cccc(Cl)c3)C2)cc1 (stereo not drawn)	inactive	inactive		7.2	1.5			
COc1ccc(C2=NN(c3cccc(Cl)c3)C(c3ccccc3Cl)C2)cc1 (stereo not drawn)							Active	Active

Now from value to molecule, other results behind:

inhibition [1]	inhibition [4]	Activity [5]	Compound	IC50 [2] [µM]	IC50 (HCT-116 [3]) [µM]	selectivity ratio [6]	inhibition (NCI-H1299)	inhibition (HCT-116 [7])
Active	Active		CC(C)(C)C1=NN(c2ccc(Cl)cc2)C(c2ccc(Cl)cc2)C1C(=O)N1CCOCC1 (stereo not drawn)	14.2	3.5			
inactive	inactive		COc1ccccc1C1=NN(c2ccccc2Cl)C(c2cccc(Cl)c2)C1 (stereo not drawn)	13.4	1.9			
Active	Active		CC(C)(C)C1=NN(c2ccc(Cl)cc2)C(c2ccc(Cl)cc2)C1 (stereo not drawn)	19.3	17.3			
Active	Active		CC(C)(C)C1=NN(c2ccc(Cl)cc2)C(c2ccc3ccccc3c2)C1 (stereo not drawn)		12.7			
inactive	inactive		CCOc1ccccc1C1=NN(c2ccc(Cl)cc2)C(c2ccc(Cl)cc2)C1C(=O)N1CCOCC1 (stereo not drawn)	8.4	8			
inactive	inactive		COc1cccc(C2=NN(c3ccc(Cl)cc3)C(c3cccc(Cl)c3)C2)c1 (stereo not drawn)		18.5			
inactive	inactive		COc1ccccc1C1=NN(c2cccc(Cl)c2)C(c2cccc(Cl)c2)C1 (stereo not drawn)	11.7	1.6			
